Source: patent US20260256792A1, “TREATMENT OF CHRONIC SPONTANEOUS URTICARIA BY ADMINISTERING (R)-2-[3-[4-AMINO-3-(2-FLUORO-4-PHENOXY-PHENYL)PYRAZOLO[3,4-D]PYRIMIDIN-1-YL]PIPERIDINE-1-CARBONYL]-4-METHYL-4-[4-(OXETAN-3-YL)PIPERAZIN-1-YL]PENT-2-ENENITRILE” (priority 2023, published 2026)

System: angioedema in CSU patients
Experiment: Phase 2 CSU study: angioedema activity score over 7 days (AAS7)
Format: in vivo, human
Settings: 400 mg TID; for AAS7 % Change difference for rilzabrutinib vs. placebo LS Mean (95% CI) / AAS7 % Change from baseline LS Mean (SE) / AAS7 = 0, Non-responder n (%) / AAS7 = 0, OR (95% CI) for rilzabrutinib vs. placebo / AAS7 = 0, RRD (%) for rilzabrutinib vs. placebo (95% CI) / AAS7 Post-baseline Mean (SD) / Participants with AAS7 = 0, Responder n (%) / AAS7 Change difference for rilzabrutinib vs. placebo LS Mean (95% CI) / AAS7 Change from baseline LS Mean (SE): angioedema at baseline; for Non-responder n (%), AAS7 = 0 / OR (95% CI) for rilzabrutinib vs. placebo, AAS7 = 0 / RRD (%) for rilzabrutinib vs. placebo (95% CI), AAS7 = 0 / Responder n (%), AAS7 = 0: outlier removed
Source text: The study comprises a 12 week, randomized, double-blind, placebo-controlled, multi-center, dose-ranging efficacy and safety phase, followed by a 40 week open label extension (OLE) phase (see FIG. 1). The study consists of three phases and an optional OLE phase. […] The weekly angioedema activity score (AAS7) was proposed as a tertiary endpoint. […] Patients were to complete the AAS using the e-diary. The e-diary was to be used once daily on the same time of each day recording of participant's answers to the angioedema activity score over 7 days (AAS7) questionnaire.

CC(C)(C=C(C#N)C(=O)N1CCC[C@@H](n2nc(-c3ccc(Oc4ccccc4)cc3F)c3c(N)ncnc32)C1)N1CCN(C2COC2)CC1 [rilzabrutinib, (R)-2-[3-[4-amino-3-(2-fluoro-4-phenoxy-phenyl)pyrazolo[3,4-d]pyrimidin-1-yl]piperidine-1-carbonyl]-4-methyl-4-[4-(oxetan-3-yl)piperazin-1-yl]pent-2-enenitrile]
AAS7 % Change difference for rilzabrutinib vs. placebo LS Mean (95% CI) (Week 4, omalizumab-naïve): −49.61 (−90.06, −9.16) %
AAS7 % Change from baseline LS Mean (SE) (Week 4, omalizumab-naïve): −79.54 (14.89) %
AAS7 = 0, Non-responder n (%) (Week 4, omalizumab-naïve): 14 (60.9) n (%)
AAS7 = 0, OR (95% CI) for rilzabrutinib vs. placebo (Week 4, omalizumab-naïve): 1.519
AAS7 = 0, RRD (%) for rilzabrutinib vs. placebo (95% CI) (Week 4, omalizumab-naïve): 7.3 %
AAS7 Post-baseline Mean (SD) (Week 4, omalizumab-naïve): 11.73 (16.82)
Participants with AAS7 = 0, Responder n (%) (Week 4, omalizumab-naïve): 9 (39.1) n (%)
AAS7 % Change from baseline LS Mean (SE) (Week 5, ITT): −69.87 (9.90) %
AAS7 Change difference for rilzabrutinib vs. placebo LS Mean (95% CI) (Week 5, ITT): −9.32 (−20.56, 1.93)
AAS7 Change from baseline LS Mean (SE) (Week 5, ITT): −38.91 (4.22)
Non-responder n (%), AAS7 = 0 (Week 5, omalizumab-naïve): 14 (41.2) n (%)
OR (95% CI) for rilzabrutinib vs. placebo, AAS7 = 0 (Week 5, omalizumab-naïve): 1.359
RRD (%) for rilzabrutinib vs. placebo (95% CI), AAS7 = 0 (Week 5, omalizumab-naïve): 7.5 %
Responder n (%), AAS7 = 0 (Week 5, omalizumab-naïve): 20 (58.8) n (%)
AAS7 % Change difference for rilzabrutinib vs. placebo LS Mean (95% CI) (Week 5, omalizumab-naïve): −17.62 (−46.15, 10.90) %
AAS7 = 0, Non-responder n (%) (Week 5, omalizumab-naïve): 13 (56.5) n (%)
AAS7 = 0, OR (95% CI) for rilzabrutinib vs. placebo (Week 5, omalizumab-naïve): 1.550
AAS7 = 0, RRD (%) for rilzabrutinib vs. placebo (95% CI) (Week 5, omalizumab-naïve): 9.8 %
AAS7 Post-baseline Mean (SD) (Week 5, omalizumab-naïve): 10.83 (15.39)
Participants with AAS7 = 0, Responder n (%) (Week 5, omalizumab-naïve): 10 (43.5) n (%)
AAS7 Change difference for rilzabrutinib vs. placebo LS Mean (95% CI) (Week 6, ITT): −11.42 (−23.52, 0.68)
AAS7 Change from baseline LS Mean (SE) (Week 6, ITT): −38.03 (4.48)
AAS7 Post-baseline Mean (SD) (Week 6, ITT): 12.73 (19.47)
Non-responder n (%), AAS7 = 0 (Week 6, omalizumab-naïve): 14 (41.2) n (%)
OR (95% CI) for rilzabrutinib vs. placebo, AAS7 = 0 (Week 6, omalizumab-naïve): 1.334
RRD (%) for rilzabrutinib vs. placebo (95% CI), AAS7 = 0 (Week 6, omalizumab-naïve): 6.5 %
Responder n (%), AAS7 = 0 (Week 6, omalizumab-naïve): 20 (58.8) n (%)
AAS7 % Change difference for rilzabrutinib vs. placebo LS Mean (95% CI) (Week 6, omalizumab-naïve): −15.46 (−46.06, 15.15) %
AAS7 = 0, Non-responder n (%) (Week 6, omalizumab-naïve): 12 (52.2) n (%)
AAS7 = 0, OR (95% CI) for rilzabrutinib vs. placebo (Week 6, omalizumab-naïve): 1.874
AAS7 = 0, RRD (%) for rilzabrutinib vs. placebo (95% CI) (Week 6, omalizumab-naïve): 13.5 %
AAS7 Post-baseline Mean (SD) (Week 6, omalizumab-naïve): 13.55 (20.58)
Participants with AAS7 = 0, Responder n (%) (Week 6, omalizumab-naïve): 11 (47.8) n (%)
AAS7 % Change difference for rilzabrutinib vs. placebo LS Mean (95% CI) (Week 7, ITT): −22.57 (−53.40, 8.26) %
AAS7 % Change from baseline LS Mean (SE) (Week 7, ITT): −68.52 (11.69) %
AAS7 Change difference for rilzabrutinib vs. placebo LS Mean (95% CI) (Week 7, ITT): −9.86 (−21.60, 1.88)
AAS7 Change from baseline LS Mean (SE) (Week 7, ITT): −37.16 (4.45)
AAS7 Post-baseline Mean (SD) (Week 7, ITT): 12.07 (15.62)
Non-responder n (%), AAS7 = 0 (Week 7, omalizumab-naïve): 15 (44.1) n (%)
OR (95% CI) for rilzabrutinib vs. placebo, AAS7 = 0 (Week 7, omalizumab-naïve): 1.277
RRD (%) for rilzabrutinib vs. placebo (95% CI), AAS7 = 0 (Week 7, omalizumab-naïve): 6.5 %
Responder n (%), AAS7 = 0 (Week 7, omalizumab-naïve): 19 (55.9) n (%)
AAS7 % Change difference for rilzabrutinib vs. placebo LS Mean (95% CI) (Week 7, omalizumab-naïve): −20.11 (−53.85, 13.63) %
AAS7 % Change from baseline LS Mean (SE) (Week 7, omalizumab-naïve): −67.11 (12.58) %
AAS7 = 0, Non-responder n (%) (Week 7, omalizumab-naïve): 13 (56.5) n (%)
AAS7 = 0, OR (95% CI) for rilzabrutinib vs. placebo (Week 7, omalizumab-naïve): 1.351
AAS7 = 0, RRD (%) for rilzabrutinib vs. placebo (95% CI) (Week 7, omalizumab-naïve): 7.2 %
AAS7 Post-baseline Mean (SD) (Week 7, omalizumab-naïve): 12.43 (15.87)
Participants with AAS7 = 0, Responder n (%) (Week 7, omalizumab-naïve): 10 (43.5) n (%)
AAS7 % Change difference for rilzabrutinib vs. placebo LS Mean (95% CI) (Week 8, ITT): −22.25 (−53.63, 9.12) %
AAS7 % Change from baseline LS Mean (SE) (Week 8, ITT): −74.30 (11.67) %
AAS7 Change difference for rilzabrutinib vs. placebo LS Mean (95% CI) (Week 8, ITT): −11.02 (−22.54, 0.50)
AAS7 Change from baseline LS Mean (SE) (Week 8, ITT): −39.35 (4.28)
AAS7 Post-baseline Mean (SD) (Week 8, ITT): 11.17 (12.56)
Non-responder n (%), AAS7 = 0 (Week 8, omalizumab-naïve): 19 (55.9) n (%)
OR (95% CI) for rilzabrutinib vs. placebo, AAS7 = 0 (Week 8, omalizumab-naïve): 0.964
RRD (%) for rilzabrutinib vs. placebo (95% CI), AAS7 = 0 (Week 8, omalizumab-naïve): −0.9 %
Responder n (%), AAS7 = 0 (Week 8, omalizumab-naïve): 15 (44.1) n (%)
AAS7 % Change from baseline LS Mean (SE) (Week 8, omalizumab-naïve): −73.05 (12.72) %
AAS7 = 0, Non-responder n (%) (Week 8, omalizumab-naïve): 17 (73.9) n (%)
